This is an account of results in patent US4687481A, “Transdermal drug delivery system” (priority 1986, dated 1987).

For data set [1] the following is noted: cited from earlier work; for FLUX (Feldman 1969) / FLUX (SCHAEFER 1979): human skin; for flux rates in comparison to the corticosterones: Table I.
Data set [2] is described as follows: In vitro mouse skin permeation from patch, Franz diffusion cell. The note with it: for Rate of permeation: 2.4 sq. cm., estradiol value is a minimum not corrected for saturation effects, maximum flux expected nearly 2-3 times greater. How it is done:
A typical sustained release for the release of levonorgestrel is: a 9.4 square centimeter of Johnson and Johnson Rayon™ First Aid Tape-Hypo-Allergenic--1 inch wide, 1.5 inch long for the impervious backing and to form the adhesive layer and a 2 square centimeter ID--2.25 square centimeter OD--2/3 mm thick teflon ring. […] Microspheres are prepared from the levonorgestrel and the poly-L(-)lactide as follows: Prepare a 2.5 percent wt/v solution of polyvinyl alcohol (PVA) #523 in one liter of distilled water; prepare a 15 percent wt/v solution of poly-L-(-)lactide, approx. 1 R.S.V. in 300 ml of reagent grade methylene chloride; mix 5 ml of the poly-L-(-)lactide solution, 10 ml methylene chloride and 5 grams of levonorgestrel to form a uniform slurry; take the 1 l of PVA solution and pour it into a 2 l stainless steel beaker. Stir at approx. 1000 RPM (1550×0.7) and heat at low temperature, (approx. 35° C.); add levonorgestrel slurry. Heat approx. 4 hours, then turn off heat and stirrer; wet sieve off the 45-106 um size fraction; and dry in vacuum oven at room temperature and recover the solid microspheres. Then 45 mg of these solid microspheres are mixed with 85 mg of Vaseline or a viscous vehicle (trademark of Chesebrough-Pond's, Inc.). The Teflon ring is placed in the center on the adhesive side of the tape and the Vaseline mixture is then spread to uniform thickness iside the Teflon ring. The porous membrane is then placed over the mixture of Vaseline to form a complete patch. An estradiol patch is similarly prepared using 70 mg of Vaseline with 38 mg of microspheres containing estradiol.
In Vitro mouse skin permeation studies were conducted with a 2.4 square centimeter patch which was placed in a 20 mm diameter water jacketted Franz diffusion cell mounted on a 9-cell Drive Unit/Mounting Assembly. The water jacket temperature of the cells was controlled by a bath and water circulator which is maintained at 37° C. This system is widely used in the pharmaceutical industry for measuring the permeability of percutaneous patches across animal and cadaver skins.
Release of each drug was determined as a function of time by analysis of aliquots of the contents of the reservoir in a Waters High Pressure Liquid Chromatograph (HPLC) using a u Bondpak C-18 radial pack column with a mobile phase of 60% ethanol in water. The steroids were measured in a uv detector at a wavelength of 280 nm for estradiol and 254 for levonorgestrel.
Pieces of full thickness abdominal skin were freshly excised from a 6 week old male nude mice and mounted individually on the Franz diffusion cell. Before use, the skins were washed three times in 200 ml normal saline to remove extraneous and other soluble material. The face membrane of the system was applied to the stratum corneum side of the skin. The skin permeation profile of each drug was followed by removing the liquid from the receptor compartment for assay at the appropriate intervals. The compartment was then filled with fresh saline and the permeation continued. Release of the drug was monitored in a liquid chromatograph (HPLC).

The procedure of data set [3]: To obtain maximum flux rates aliquots of the reservoir were analyzed during a period of 8 hours on day 2, day 3, and day 7.
For data set [4] the following is noted: cited from earlier work; for oral effectiveness: "first pass" inactivation.
The conditions of data set [5]: cited from earlier work.
For data set [6] the following is noted: implantable drug delivery systems; cited from earlier work.
For data set [7] the following is noted: cited from earlier work. The source holds these as a separate data set.

Where “and” joins values, the source holds several entries; their conditions need not be identical. Equal entries are not always repeated. Entries after “also recorded” stand apart in the source; their conditions may differ. Where two headings read alike, the source gives them in different places. Some results are limits rather than exact numbers.

For the molecule `C[C@]12C[C@H](O)[C@H]3[C@@H](CCC4=CC(=O)CC[C@@]43C)[C@@H]1CC[C@@H]2C(=O)CO` [Corticosterone], the “FLUX (Feldman 1969)” value in data set [1] is on record as 7.5 × 10^-12 MOLES/CM^2 HR.

Take `C[C@]12CC[C@@H]3c4ccc(O)cc4CC[C@H]3[C@@H]1CC[C@@H]2O` [Estradiol, 17β estradiol]: in data set [1], the “flux rates in comparison to the corticosterones” value is “fairly high”; the “FLUX (Feldman 1969)” value is listed as 8.2 × 10^-11 MOLES/CM^2 HR; the “FLUX (SCHAEFER 1979)” value is 5.8 × 10^-10 MOLES/CM^2 HR and 4.6 × 10^-10 MOLES/CM^2 HR. In data set [2] (2.4 square centimeter estradiol patch, per day, mass unit not given), this molecule returned a permeation rate of 5. Besides, the “delivery across freshly excised mouse skin” value in data set [2] (2.4 square centimeter patch (DermaPatch)) stood at 5 micrograms/day. This molecule registered a Minimum dose absorbed in data set [2] (Table 3, 2.4 sq. cm. patch) above 5.2 mcg./24 hr. Further, the Rate of permeation in data set [2] (Table 3) is above 0.09 mcg./sq. cm./hr. The mouse skin permeation in data set [2] (day 1) is listed as 6 Micrograms/2.4 sq. cm. The mouse skin permeation in data set [2] (day 2) was determined as 10 Micrograms/2.4 sq. cm. In addition, the mouse skin permeation in data set [2] (day 3) was 16 Micrograms/2.4 sq. cm. The “Estimated size needed to deliver required dose” value in data set [3] is on record as 5. In data set [4], the oral effectiveness entry is “limited oral effectiveness”.

For the molecule `C[C@]12CC[C@@H]3c4ccc(O)cc4CC[C@H]3[C@@H]1C[C@@H](O)[C@@H]2O` [Estriol], in data set [1], the “FLUX (SCHAEFER 1979)” value is given as 7.8 × 10^-11 MOLES/CM^2 HR.

On to `C[C@]12CCC(=O)C=C1CC[C@@H]1[C@@H]2[C@@H](O)C[C@@]2(C)[C@H]1CC[C@]2(O)C(=O)CO` [Hydrocortisone], for which, in data set [1], the “FLUX (Feldman 1969)” value was 2.5 × 10^-11 MOLES/CM^2 HR. In addition, the “increase in the penetration of hydrocortisone” value in data set [5] (modified skin, when the skin is occluded) is on record as “tenfold increase”. Besides, in data set [5] (through modified skin, occluded), the “penetration of hydrocortisone when the skin is occluded” value is given as 10%. For the same molecule, the “penetration of hydrocortisone before increase” value in data set [5] (through modified skin, starting value, not occluded) is on record as 1%.

Regarding `C#C[C@]1(O)CC[C@H]2[C@@H]3CCC4=CC(=O)CC[C@@H]4[C@H]3CC[C@@]21CC` [Levonorgestrel, levonorgestrel], the Minimum dose absorbed in data set [2] is on record as 43-160 mcg./24 hr. The “delivery across freshly excised mouse skin” value in data set [2] is recorded as 43 micrograms/day. Besides, in data set [2] (Table 3), the Rate of permeation is 0.75-2.8 mcg./sq. cm./hr. In data set [2] (abdominal skin of nude mouse), the “skin permeation / release profile” value is “zero order release; also recorded: zero order rate”. The “average rate of release (maximum flux rates)” value in data set [2] (aliquots during 8 hours on day 2, day 3 and day 7, 2.4 square centimeter patch) is recorded as 6.7 micrograms per hour; in data set [2] (from 6.7 micrograms per hour, days 2, 3 and 7), 160 micrograms per day/2.4 square/centimeters. For the same molecule, the mouse skin permeation entry is “about 25 Micrograms/2.4 sq. cm” in data set [2] (day 1); 90 Micrograms/2.4 sq. cm in data set [2] (day 2); 140 Micrograms/2.4 sq. cm in data set [2] (day 3); 270 Micrograms/2.4 sq. cm in data set [2] (day 7); 375 Micrograms/2.4 sq. cm in data set [2] (day 8); 405 Micrograms/2.4 sq. cm in data set [2] (day 9). In addition, the mouse skin permeation in data set [2] (day 10) is listed as 570 Micrograms/2.4 sq. cm; in data set [2] (day 11) it was 505 Micrograms/2.4 sq. cm; in data set [2] (day 14), 590 Micrograms/2.4 sq. cm. Further, the “rate of skin permeation” value in data set [2] (during 24 hours, membrane area 2.4 square centimeters) is “approximately 43 ug/day”. The “dose sufficient to prevent fertility” value in data set [6] is listed as 30 micrograms per day. Further, in data set [3] (dose required 20 (levonorgestrel) or 25 (estradiol) mcg./day), the “Estimated size needed to deliver required dose” value is listed as 0.5 sq. cm. Also, the “estimated delivery from a patch” value in data set [3] (patch surface area 0.5 square centimeters) was 20 micrograms per day; in data set [3] (patch surface area 5 square centimeters) it was 2.5 milligrams per day.

In the case of `CC(=O)[C@H]1CC[C@H]2[C@@H]3CCC4=CC(=O)CC[C@]4(C)[C@H]3CC[C@]12C` [Progesteone, progesterone], the “accumulation in subcutaneous tissue and underlying muscle” value in data set [7] (in vivo) is “more pronounced with percutaneous than with subcutaneous administration”. For the same molecule, in data set [1], the “flux rates in comparison to the corticosterones” value was “fairly high” and the “FLUX (Feldman 1969)” value is on record as 3.4 × 10^-11 MOLES/CM^2 HR.

As to `C#C[C@]1(O)CC[C@H]2[C@@H]3CCc4cc(O)ccc4[C@H]3CC[C@@]21C` [ethinylestradiol], the oral effectiveness entry in data set [4] is given as “active orally”. The “inactivation by the liver and other tissues” value in data set [4] (oral) is reported as “very low”.

Regarding `CN(Cc1cnc2nc(N)nc(N)c2n1)c1ccc(C(=O)N[C@@H](CCC(=O)O)C(=O)O)cc1` [methotrexate], the “reduction of the duration of the reservoir” value in data set [7] (irritation increases epidermal turnover) is recorded as around 50%.

On to `CN1CCCC1c1cccnc1` (stereo not shown) [nicotine], for which, in data set [7] (compound which very rapidly penetrates and diffuses), the “period maintained in the reservoir” value is 3 to 4 days.

In the case of estrogen, the “accumulation in subcutaneous tissue and underlying muscle” value in data set [7] (percutaneous versus subcutaneous administration) is recorded as “more pronounced with percutaneous than with subcutaneous administration”.
